The source of these data is ChEMBL document CHEMBL1126377, “Synthesis of 9-[2-(phosphonomethoxy)ethylamino]adenine and 9-[(phosphonomethoxy)acetamido]adenine, analogues of a potent anti-HIV acyclonucleotide” (Bioorg Med Chem Lett, 1992).

Common to all, as to format: functional, organism-based
In test [1] the test system is Human immunodeficiency virus 1. The test is described as follows: Inhibition of the replication of human immunodeficiency virus (HIV) at 10 uM concentration.
In test [2] the test system is Human immunodeficiency virus 1. As to the kind of experiment: Inhibition of the replication of human immunodeficiency virus (HIV) at 10 uM concentration; NE=No effect.
For the next test, the system named is Cytomegalovirus. The test is described as follows: Effect on replication of cytomegalovirus at a concentration of 300 uM; NE=No effect.
In another test the test system is Human alphaherpesvirus 3. The test is described as follows: Effect on replication of varicella zoster virus at a concentration of 300 uM; NE=No effect.
The next test relates to Human alphaherpesvirus 2. The test is described as follows: Effect on replication of herpes simplex virus type 2 at a concentration of 300 uM; NE=No effect.
A further test has as its system Human alphaherpesvirus 1. As to the kind of experiment: Effect on replication of herpes simplex virus type 1 at a concentration of 300 uM; NE=No effect.

Active and inactive are the calls of the source. No cut-off for these calls is given here.

A word on the IC50: it is the concentration that inhibits the measured activity by half. A low value points to greater potency. For `Nc1ncnc2c1ncn2OCCOCP(=O)(O)O`, half-maximal inhibition in test [1] (IC50) was put at 0.3 µM.

Take `Nc1ncnc2c1ncn2NCCOCP(=O)(O)O`: the outcome (in test [2]; in the test with Cytomegalovirus; in the test on Human alphaherpesvirus 3; with Human alphaherpesvirus 2; in the test with Human alphaherpesvirus 1) was inactive.

In test [1], `Nc1ncnc2c1ncn2OCC/C=C/P(=O)(O)O` came in with an IC50 of 10 µM. This counts as double-digit micromolar.

With `Nc1ncnc2c1ncn2NC(=O)COCP(=O)(O)O`, the outcome (in test [2]; in the test with Cytomegalovirus; in the test on Human alphaherpesvirus 3; in the test on Human alphaherpesvirus 2; in the test with Human alphaherpesvirus 1) was inactive.
